Measurements: ChEMBL document CHEMBL1201862, “PubChem BioAssay data set” (2004)
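Results reflect a 48-hour exposure of cells in 96-well plates to compound at five concentrations. At the GI50, growth is halved.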 The source made the active and inactive calls. Cut-off read from the data, not from the text of the source: active = GI50 up to about 1.1 µM and inactive = higher.

What was measured:
Experiment in all cases: NCI tumour cell line growth inhibition, 48 h
786-0 = tested on: 786-0
A549 = tested on: A549
CAKI-1 = tested on: CAKI-1
COLO 205 = tested on: COLO 205
HCT-116 = tested on: HCT-116
HCT-15 = tested on: HCT-15
Hs-578T = tested on: Hs-578T
MDA-MB-231 = tested on: MDA-MB-231
MDA-MB-435 = tested on: MDA-MB-435
MOLT-4 = tested on: MOLT-4
Malme-3M = tested on: Malme-3M
NCI-H460 = tested on: NCI-H460
SF-539 = tested on: SF-539
SK-OV-3 = tested on: SK-OV-3
SNB-19 = tested on: SNB-19
SW-620 = tested on: SW-620
U-251 = tested on: U-251
UACC-257 = tested on: UACC-257
UACC-62 = tested on: UACC-62
LOX IMVI = tested on: LOX IMVI

Measured: GI50

CC1CN(c2cc3c(cc2F)c(=O)c(C(=O)O)cn3-c2ccc(N3CCN(C)CC3)cn2)CC(C)N1 (stereo not given)
> 100 µM: HCT-15
inactive: 786-0 > 100 µM | A549 > 100 µM | CAKI-1 > 100 µM | COLO 205 52.8 µM | HCT-116 > 100 µM | Hs-578T > 100 µM | MDA-MB-231 > 100 µM | MDA-MB-435 > 100 µM | MOLT-4 99.5 µM | Malme-3M > 100 µM | NCI-H460 > 100 µM | SF-539 > 100 µM | SK-OV-3 > 100 µM | SNB-19 70 µM | SW-620 98.4 µM | U-251 70.5 µM | UACC-257 > 100 µM | UACC-62 > 100 µM

Cc1ccc(S(=O)(=O)NNC(=S)Nc2cccc3ccccc23)cc1
67.5 µM: HCT-15
inactive: 786-0 14.2 µM | A549 49.4 µM | CAKI-1 55.7 µM | COLO 205 36.8 µM | HCT-116 55.2 µM | Hs-578T 97.5 µM | MDA-MB-231 54.8 µM | MDA-MB-435 41.5 µM | MOLT-4 38.1 µM | Malme-3M 33.3 µM | NCI-H460 > 100 µM | SF-539 80.4 µM | SK-OV-3 43.3 µM | SNB-19 68.1 µM | SW-620 > 100 µM | U-251 40.6 µM | UACC-257 13.8 µM | UACC-62 32.1 µM

CNc1ncnc2c1cnn2Cc1cn(COCC(O)CO)nn1 (stereo not given)
inactive: 786-0 > 100 µM | A549 > 100 µM | CAKI-1 > 100 µM | COLO 205 > 100 µM | HCT-116 > 100 µM | LOX IMVI > 100 µM | MDA-MB-231 > 100 µM | MDA-MB-435 > 100 µM | SF-539 > 100 µM | SK-OV-3 > 100 µM | SNB-19 > 100 µM | SW-620 > 100 µM | U-251 > 100 µM | UACC-257 > 100 µM | UACC-62 > 100 µM
> 100 µM: HCT-15
active: Hs-578T 0.149 µM

O=C1/C(=C2\Sc3c(ccc(Cl)c3Cl)C2=O)Sc2c1ccc(Cl)c2Cl
> 100 µM: HCT-15
inactive: 786-0 > 100 µM | A549 > 100 µM | CAKI-1 > 100 µM | COLO 205 > 100 µM | HCT-116 > 100 µM | Hs-578T > 100 µM | MDA-MB-231 > 100 µM | MDA-MB-435 > 100 µM | MOLT-4 > 100 µM | Malme-3M > 100 µM | NCI-H460 > 100 µM | SF-539 > 100 µM | SNB-19 > 100 µM | SW-620 > 100 µM | U-251 > 100 µM | UACC-257 > 100 µM | UACC-62 > 100 µM

O=C1c2ccccc2-c2nnc3c(c21)-c1ccccc1C3
39.4 µM: HCT-15
inactive: 786-0 > 100 µM | A549 62.7 µM | CAKI-1 65.6 µM | COLO 205 46.6 µM | HCT-116 64 µM | Hs-578T > 100 µM | MDA-MB-231 > 100 µM | MDA-MB-435 > 100 µM | MOLT-4 24.5 µM | Malme-3M > 100 µM | NCI-H460 29.2 µM | SF-539 93.8 µM | SK-OV-3 > 100 µM | SNB-19 39 µM | SW-620 53.2 µM | U-251 67 µM | UACC-257 > 100 µM | UACC-62 37.6 µM

Cc1ccccc1/N=N/c1ccc(/N=N/c2c(O)ccc3cc(S(=O)(=O)O)cc(S(=O)(=O)O)c23)c(C)c1
> 100 µM: HCT-15
inactive: 786-0 > 100 µM | A549 > 100 µM | CAKI-1 > 100 µM | COLO 205 > 100 µM | HCT-116 > 100 µM | Hs-578T > 100 µM | MDA-MB-231 > 100 µM | MDA-MB-435 > 100 µM | MOLT-4 > 100 µM | Malme-3M > 100 µM | NCI-H460 > 100 µM | SF-539 > 100 µM | SK-OV-3 > 100 µM | SNB-19 > 100 µM | SW-620 > 100 µM | U-251 > 100 µM | UACC-257 > 100 µM | UACC-62 > 100 µM

C1=N\CCN2CCN(CC/N=C\c3ccccc3OCc3cccc(n3)COc3ccccc3/1)CC2
inactive: 786-0 5.13 µM | A549 44.6 µM | COLO 205 19.6 µM | HCT-116 2.61 µM | Hs-578T 1.38 µM | MDA-MB-231 16.4 µM | MOLT-4 4.6 µM | Malme-3M 6.12 µM | NCI-H460 38.2 µM | SF-539 3 µM | SK-OV-3 16.9 µM | SNB-19 9.91 µM | SW-620 2.35 µM | U-251 2.26 µM | UACC-257 10.5 µM | UACC-62 1.73 µM
6.01 µM: HCT-15
active: MDA-MB-435 0.973 µM

CCOC(=O)c1c(/C=N\Nc2ccccc2)nc2ccccc2c1-c1ccccc1
inactive: 786-0 40.6 µM | A549 50.9 µM | CAKI-1 68.9 µM | COLO 205 24 µM | HCT-116 42 µM | LOX IMVI 35.4 µM | MOLT-4 20.7 µM | Malme-3M 35.1 µM | NCI-H460 37.8 µM | SF-539 68.5 µM | SK-OV-3 > 100 µM | SNB-19 79.1 µM | SW-620 38.1 µM | U-251 38.2 µM | UACC-257 70.3 µM | UACC-62 25 µM
13.6 µM: HCT-15

C/C(=C\c1ccccc1)C(=O)NCc1ccc(C(=O)NCCc2c[nH]c3ccccc23)cc1
inactive: 786-0 76 µM | A549 > 100 µM | CAKI-1 > 100 µM | COLO 205 37.6 µM | HCT-116 58.3 µM | LOX IMVI 61.1 µM | MDA-MB-231 > 100 µM | MDA-MB-435 78 µM | MOLT-4 60.7 µM | Malme-3M > 100 µM | NCI-H460 25.9 µM | SF-539 > 100 µM | SK-OV-3 > 100 µM | SNB-19 > 100 µM | SW-620 > 100 µM | U-251 > 100 µM | UACC-257 13.6 µM | UACC-62 14 µM
> 100 µM: HCT-15

N=C(N)NS(=O)(=O)c1ccc(NC(=O)c2c3ccccc3nc3ccccc23)cc1
inactive: 786-0 > 100 µM | A549 > 100 µM | CAKI-1 > 100 µM | COLO 205 > 100 µM | HCT-116 > 100 µM | LOX IMVI > 100 µM | MDA-MB-231 > 100 µM | MDA-MB-435 > 100 µM | MOLT-4 > 100 µM | Malme-3M > 100 µM | NCI-H460 > 100 µM | SF-539 > 100 µM | SK-OV-3 > 100 µM | SNB-19 86.5 µM | SW-620 > 100 µM | U-251 > 100 µM | UACC-257 > 100 µM | UACC-62 > 100 µM
> 100 µM: HCT-15

O=C(Cc1nc2ccccc2s1)C(=O)Nc1ccc(Cl)cc1
inactive: 786-0 > 100 µM | A549 > 100 µM | CAKI-1 > 100 µM | COLO 205 > 100 µM | HCT-116 > 100 µM | LOX IMVI > 100 µM | MOLT-4 > 100 µM | Malme-3M > 100 µM | NCI-H460 > 100 µM | SF-539 > 100 µM | SK-OV-3 > 100 µM | SNB-19 > 100 µM | SW-620 > 100 µM | U-251 > 100 µM | UACC-257 > 100 µM | UACC-62 > 100 µM
> 100 µM: HCT-15

Cc1ccc2c(c1)SC(c1cc3c(cc1Br)OCO3)S2 (stereo not given)
inactive: 786-0 > 31.6 µM | A549 > 31.6 µM | CAKI-1 > 76 µM | COLO 205 > 31.6 µM | HCT-116 23.9 µM | LOX IMVI > 31.6 µM | MOLT-4 31.4 µM | Malme-3M > 31.6 µM | NCI-H460 > 31.6 µM | SF-539 > 31.6 µM | SK-OV-3 > 31.6 µM | SNB-19 > 100 µM | SW-620 86.1 µM | U-251 > 31.6 µM | UACC-257 > 31.6 µM | UACC-62 > 31.6 µM
25.4 µM: HCT-15

CCSC1=CC2(O)N(CCc3ccc(OC)c(OC)c3)C(=O)CC2(C(=O)OC)CC1=O (stereo not given)
inactive: 786-0 19.3 µM | A549 > 100 µM | CAKI-1 70.5 µM | COLO 205 77.6 µM | HCT-116 17.9 µM | LOX IMVI 19.1 µM | MDA-MB-231 18.3 µM | MDA-MB-435 21.2 µM | MOLT-4 23.8 µM | SF-539 26.3 µM | SK-OV-3 86.9 µM | SNB-19 92.9 µM | SW-620 25.2 µM | U-251 23.4 µM | UACC-257 17.9 µM | UACC-62 19.5 µM
25.8 µM: HCT-15

CCC1C(C(=O)Nc2ccccc2C)=C(C)NC(C)=C1c1ccccc1C (stereo not given)
> 40.1 µM: HCT-15
inactive: 786-0 > 100 µM | A549 > 78 µM | CAKI-1 > 100 µM | COLO 205 > 77.1 µM | HCT-116 > 48.6 µM | LOX IMVI > 57.8 µM | MOLT-4 > 100 µM | Malme-3M > 100 µM | NCI-H460 > 44.1 µM | SF-539 > 100 µM | SK-OV-3 > 100 µM | SNB-19 > 100 µM | SW-620 > 43.1 µM | U-251 > 100 µM | UACC-257 > 100 µM | UACC-62 > 100 µM

CC(C)(C)OC(=O)NC(C)(C)C(=O)NCCC(=O)O
inactive: 786-0 > 100 µM | A549 > 100 µM | CAKI-1 > 100 µM | COLO 205 > 100 µM | Hs-578T > 100 µM | LOX IMVI > 100 µM | MDA-MB-231 > 100 µM | MDA-MB-435 > 100 µM | MOLT-4 > 100 µM | NCI-H460 > 100 µM | SF-539 > 100 µM | SK-OV-3 74.6 µM | SNB-19 > 100 µM | SW-620 > 100 µM | U-251 > 100 µM | UACC-257 > 100 µM | UACC-62 > 100 µM
> 100 µM: HCT-15
